From article PMC4741889, “Ligand-based chemoinformatic discovery of a novel small molecule inhibitor targeting CDC25 dual specificity phosphatases and displaying in vitro efficacy against melanoma cells” (Oncotarget, 2015)

Columns and labels:
[1] = biological target: T1, CDC25B (Homo sapiens, UniProt P30305); assay: Ki from OMFP hydrolysis kinetics (Lineweaver-Burk), CDC25B; format: biochemical; conditions: 10 nM CDC25B, 1–25 μM OMFP; mean ± S.E.
T1 construct: Recombinant forms of the catalytic domains of CDC25A, -B and -C were obtained through the vectors pET28a-CDC25A-cd, pET28a-CDC25B-cd and pET28a-CDC25C-cd; made in house
T1 sequence (P30305 431-538 limits assumed): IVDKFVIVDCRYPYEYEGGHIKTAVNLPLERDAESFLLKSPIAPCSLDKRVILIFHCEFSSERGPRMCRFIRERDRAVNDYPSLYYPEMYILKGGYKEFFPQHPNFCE
Experimental: To measure the inhibition constant (Ki) of the recombinant forms of CDC25A, -B and -C towards the various inhibitors, the affinity of the different forms of CDC25 towards OMFP was measured either in the absence or in the presence of fixed concentrations of the various inhibitors. The reaction mixture contained 20 nM CDC25A, or 10 nM CDC25B, or 40 nM CDC25C, and different concentrations of the various inhibitors in 500 μL final volume of 20 mM Tris-HCl, pH 7.8, 1 mM DTT. DMSO was used as vehicle control. The reaction started by the addition of 1–25 μM OMFP, and the rate of OMFP hydrolysis was measured as indicated before. The corresponding Lineweaver-Burk plots allowed the calculation of the KM for OMFP and of the Vmax of OMFP hydrolysis, expressed as a.u./minmax. […] The Ki values were obtained from the decrease of a.u./minmax in the presence of the inhibitor, according to the equation a.u./mimmax’ = a.u./mimmax/{1 + ([I]/Ki)}, where a.u./mimmax’ represents the Vmax measured in the presence of the concentration [I] of the inhibitor. The Ki values were obtained from at least three independent experiments and reported as mean ± S.E.

[2] = tested on: CDC25B protein levels; assay: Western blotting of CDC25B protein levels in A2058 cells; format: cell-based, human; conditions: A2058, 100 μM, up to 16 h
Experimental: To better investigate the effect of this inhibitor at the molecular level, we evaluated if the treatment of A2058 cells with 7 affected also the protein levels of the three CDC25 forms. […] On the other hand, the protein levels of CDC25B were unaffected by treatment of A2058 cells with 7 up to 16 h.
A2058 cells were seeded into 6-well-plates (3 × 10^5 cells/plate) for 24 h at 37°C and then treated at different times with 100 μM compound 7 or 0.5% DMSO. After treatment, cells were harvested, washed with PBS and then lysed in ice-cold modified radio immunoprecipitation assay (RIPA) buffer (50 mM Tris-HCl, pH 7.4, 150 mM NaCl, 1% Nonidet P-40, 0.25% sodium deoxycholate, 1 mM Na3VO4 and 1 mM NaF), supplemented with protease inhibitors and incubated for 30 min on ice. The supernatant obtained after centrifugation at 12,000 rpm for 30 min at 4°C constituted the total protein extract. The protein concentration was determined by the method of Bradford, using bovine serum albumin (BSA) as standard. Equal amounts of total protein extracts were used for Western blot analysis. […] Membranes were then analysed by an enhanced chemiluminescence reaction, using Super Signal West Pico kit (Pierce) according to manufacturer's instruction; signals were visualized by autoradiography.

[3] = tested on: caspase-3 activity; assay: Caspase-3 enzymatic activity in SAN cells; format: cell-based, human; conditions: 100 μM
Description: PI incorporation followed by flow cytometric analysis was used to detect the effect of 7 on the number of nuclei with a sub-diploid content, a typical hallmark of apoptosis. A time-dependent increase of apoptosis was evident in both A2058 and SAN cells and in particular, the effect of 7 on cell death program was already evident after 24-h treatment (Figure 7). […] To further investigate on the capacity of 7 to induce apoptosis, the enzymatic activity of caspase-3, the final effector of apoptotic program, was monitored.
To estimate caspase-3 and caspase-9 activity during the treatment with compound 7, the respective enzymatic activities were measured by using caspase-3 and -9 fluorimetric assay kits, according to the manufacturer's protocol, essentially as previously described. Briefly, cells were seeded into 75 cm^2 plates (2 × 10^6 cells/plate) for 24 h at 37°C and then treated with 100 μM 7 or 0.5% DMSO. At the end of each incubation, cells were collected, washed with PBS, and finally lysed at 4°C in the cell lysis buffer. Cell lysates were incubated with 50 μM DEVD-AFC or LEHD-AFC substrates at 37°C for 2 h, to detect caspase-3 or caspase-9 activity, respectively, using a Cary Eclipse fluorescence spectrophotometer (Varian). Excitation and emission wavelengths were set at 400 nm and 505 nm, respectively; both excitation and emission slits were set at 10 nm.

[4] = tested on: Bcl-2 and Bax protein levels; assay: Western blotting of Bcl-2 and Bax protein levels in SAN cells; format: cell-based, human; conditions: 100 μM, 8 or 16 h
Experimental: Mitochondria represent the primary source of ROS, as well the target of ROS action, and therefore, compound 7 could affect their functionality in melanoma cells. […] Proteins belonging to the B-cell lymphoma-2 (Bcl-2) family are involved in the modulation of the mitochondrial functionality. Therefore, we have evaluated the levels of the anti-apoptotic protein Bcl-2, as well as that of the pro-apoptotic Bcl-2-associated X protein (Bax), after incubation with 7 (Figure 10B). […] To further investigate the occurrence of a mitochondrial-mediated apoptosis induced by 7, the caspase-9 activity was assayed. […]
A2058 cells were seeded into 6-well-plates (3 × 10^5 cells/plate) for 24 h at 37°C and then treated at different times with 100 μM compound 7 or 0.5% DMSO. […] The protein concentration was determined by the method of Bradford, using bovine serum albumin (BSA) as standard. […] Membranes were then analysed by an enhanced chemiluminescence reaction, using Super Signal West Pico kit (Pierce) according to manufacturer's instruction; signals were visualized by autoradiography.
Supplementary Figure S6: Effect of compound 7 on some apoptotic mitochondrial markers in SAN cells. […] Total protein extracts from SAN cells, incubated with 0.5% DMSO or 100 μM compound 7 for 8 or 16 h,were analyzed by Western blotting. […]

- Ki [1]: 780 ± 30 nM
SMILES: O=C(O)C1CCCCC1c1c2ccc(=O)cc-2oc2cc(O)ccc12 (centres unmarked) [Compound 7, 2-(6-hydroxy-3-oxo-3H-xanthen-9-yl)cyclohexanecarboxylic acid]
- CDC25B protein levels [2]: unaffected
- caspase-3 enzymatic activity [3]: significant increase of the enzymatic activity of caspase-3
- Bcl-2/Bax ratio [4]: significantly decreased
- Bcl-2 and Bax protein levels [4]: both levels of Bcl-2 and Bax were reduced
